Earlier results in publication PMC10675597, “Design, Synthesis, and Antisickling Investigation of a Thiazolidine Prodrug of TD-7 That Prolongs the Duration of Action of Antisickling Aromatic Aldehyde” (Pharmaceutics, 2023).

Legend:
[1] = design: method as in PMID 34657559, PMID 9490025, PMID 10376886, PMID 11154732; details: cited from earlier work
[2] = design: method as in PMID 15180869; details: cited from earlier work

| Compound | oral bioavailability (in words) [1] | oral bioavailability compared to vanillin (in words) [2] | Cmax ([2]; oral, Sprague-Dawley rats) | Cmax, fold greater than vanillin ([2]; oral, Sprague-Dawley rats) | relative bioavailability, fold higher than vanillin ([2]; oral, Sprague-Dawley rats) |
| --- | --- | --- | --- | --- | --- |
| O=Cc1ccc(CO)o1 [5-HMF, 5-hydroxymethylfurfural] | low oral bioavailability | – | – | – | – |
| CCOC(=O)[C@H]1CSC(c2ccc(O)c(OC)c2)N1 (some centres unmarked) [MX-1520] | – | much better oral bioavailability | 9000 ng/mL | 4 fold | 30 fold |
| CC(C)n1nccc1-c1ncccc1COc1cccc(O)c1C=O [Voxelotor] | satisfactory oral bioavailability | – | – | – | – |
| COc1cc(C=O)ccc1O [vanillin] | low oral bioavailability | – | 2000 ng/mL | – | – |
